What is called IC50 is the point on the concentration scale where inhibition reaches its midpoint.

One data set concerns MDA-MB-231. Briefly: Cell viability after 72-hour incubation, CellTiter-Glo 2.0. In kind it is cell-based. As to conditions: Homo sapiens, read-out: IC50 (μM) MDA-MB-231. Here is the method:
(§1) Select tumor lines representative of triple negative breast cancer (MDA-MB-231 and BT549) were identified for testing of efficacy of compounds. Assessment of compound efficacy was determined by a test of cell viability after 72-hour incubation with compound using CellTiter-Glo 2.0 (Promega). […] Selectivity index is defined as the ratio of the calculated IC50 in normal epithelial lines to the calculated IC50 in a cancerous cell line. For CellTiter-Glo cells are plated in a 96-well, opaque, flat-bottomed black plate. Cells are seeded at 5,000 cells per well and allowed to incubate for 6 hours to allow for attachment. Cells are then dosed in a 12-point serial dilution spanning a range of 50 μM to 25 nM. Clofarabine is used as a positive control for all cell lines, and each plate contains media only, and DMSO controls as negatives for each compound tested. Final volume for both cells and compound should be 100 uL. After 72-hour exposure to compound, plates are removed from the incubator and allowed to equilibrate to room temperature for 30 minutes. An equal volume of CellTiter-Glo 2.0 reagent is added to media present in well (100 uL). Plates are then placed onto an orbital shaker and allow to incubate while shaking for 10 to 15 minutes. Raw luminescence readings are obtained. Log transformations of the background subtracted data are analyzed using a 4PL-fit model, and IC50 values are calculated based on the sigmoidal fit of the non-linear regression model.

A further data set has as its system BT549. The data set is described as above. In kind it is cell-based. As to conditions: Homo sapiens, read-out: IC50 (μM) BT549. Here is the method:
as §1

Data set [1] is described as follows: Basic dose escalation test for tolerance of drug concentration. The format is in vivo. As to conditions: dose escalation 25, 40, 55 mg/kg, Q1D×5 with 2-day washout, B6C3F1/N female mice, FIG. 2. The protocol:
Briefly, a cohort of B6C3F1/N female mice were split into three dosing arms: Control (N=2), Clofarabine (N=3), and compound 5 (N=3). The dosing schedule was set based on previous and historical dosing with nucleosides, Q1D×5 with a 2-day washout period before dose escalation. The selected dose concentrations were 25 mg/kg, 40 mg/kg, and 55 mg/kg. Blood was collected weekly by submandibular bleed for ALT and AST measurements, and at necropsy major organs were examined for gross toxicity.

Another data set relates to MDA-MB-231 cells. Briefly: In vivo efficacy in a solid tumor, triple negative breast cancer model. As to conditions: 25 mg/kg intraperitoneal for 2 weeks, s.c. MDA-MB-231 tumors in athymic nude mice, FIG. 1. The protocol:
Athymic nude mice (Crl:Nu(NCr)-Fox^1nu; Charles River) were injected s.c. in the right flank with 100 uL MDA-MB-231 cells in 1:1 RPMI 1640 and Cultrex BME Type 3 (1×10^6 cells/mouse). Tumors were allowed to grow until 500 mm^3 (Tumor Volume= […]×Length×Width^2), at which point mice were dosed […] for 2 weeks by intraperitoneal injection with either vehicle (N-Methyl-2-Pyrrolidone (NMP), Polyethylene glycol 400 (PEG400), and saline at a ratio of 1:2:2 v/v/v), 25 mg/kg of Clofarabine, or 25 mg/kg of compound 5. Tumor volumes were measured twice weekly, and bodyweight was measured daily during the dosing period. This was a pilot test to determine anti-tumor growth activity, so regrowth was not measured and the study was terminated two days after the final dose.

The mark [2] stands for this setting: MDA-MB-231 triple negative breast cancer cells, 72-hour exposure, CellTiter-Glo 2.0, 50 μM to 25 nM.
Setting [3] is: BT-549, BT549 triple negative breast cancer cells, 72-hour exposure, CellTiter-Glo 2.0, 50 μM to 25 nM.

Molecules are shown by their SMILES. Entries after “also recorded” stand apart in the source; their conditions may differ. Read-outs that look alike come from different tables or passages of the source.

Regarding `CC[C@@H](C)[C@@H](N)C(=O)OC[C@H]1O[C@@H](n2cnc3c(N)nc(C(F)(F)F)nc32)[C@@H](F)[C@@H]1O` [Compound 18, [(2R,3R,4S,5R)-5-[6-amino-2-(trifluoromethyl)purin-9-yl]-4-fluoro-3-hydroxy-tetrahydrofuran-2-yl]methyl (2R,3R)-2-amino-3-methyl-pentanoate], the half-maximal inhibitory concentration (IC50) in the data set with MDA-MB-231 (setting [2]) is 11.4 µM; in the data set on BT549 (setting [3]), over 50 µM.

As to `OC[C@H]1O[C@@H](n2cnc3c(NC4CC4)nc(C(F)(F)F)nc32)[C@@H](F)[C@@H]1O` [Compound 7c, (2R,3R,4S,5R)-5-[6-(cyclopropylamino)-2-(trifluoromethyl)purin-9-yl]-4-fluoro-2-(hydroxymethyl)tetrahydrofuran-3-ol], in the data set with MDA-MB-231 (setting [2]), the IC50 amounted to 2.58 µM.

As to `COC(=O)[C@H](C)NP(=O)(OC[C@H]1O[C@@H](n2cnc3c(N)nc(C(F)(F)F)nc32)C(F)C1O)Oc1ccccc1` (mixture of isomers) [Compound 12, methyl (2S)-2-[[phenoxy-[[rac-(2R,3R,4S,5R)-5-[6-amino-2-(trifluoromethyl)purin-9-yl]-4-fluoro-3-hydroxy-tetrahydrofuran-2-yl]methoxy]phosphoryl]amino]propanoate], the IC50 in the data set with MDA-MB-231 (MDA-MB-231, 72 h) came to 13.7 µM; with BT549 (BT-549, 72 h), 13.1 µM.

For the compound `CCC(CC)Nc1nc(C(F)(F)F)nc2c1ncn2[C@@H]1O[C@H](CO)[C@@H](O)[C@@H]1F` [Compound 7b, (2R,3R,4S,5R)-5-[6-(1-ethylpropylamino)-2-(trifluoromethyl)purin-9-yl]-4-fluoro-2-(hydroxymethyl)tetrahydrofuran-3-ol], the IC50 in the data set on MDA-MB-231 (setting [2]) was at least 67 µM; with BT549 (setting [3]), over 50 µM.

For `CC(Nc1nc(C(F)(F)F)nc2c1ncn2[C@@H]1O[C@H](CO)[C@@H](O)[C@@H]1F)C1CC1` (stereo partly drawn) [Compound 7d, (2R,3R,4S,5R)-5-[6-(1-cyclopropylethylamino)-2-(trifluoromethyl)purin-9-yl]-4-fluoro-2-(hydroxymethyl)tetrahydrofuran-3-ol], the results for the IC50 with MDA-MB-231 (setting [2]) and in the data set on BT549 (setting [3]) were 20.5 µM and 15.1 µM, respectively.

As for `CC1(Nc2nc(C(F)(F)F)nc3c2ncn3[C@@H]2O[C@H](CO)[C@@H](O)[C@@H]2F)CCC1` [Compound 7f, (2R,3R,4S,5R)-4-fluoro-2-(hydroxymethyl)-5-[6-[(1-methylcyclobutyl)amino]-2-(trifluoromethyl)purin-9-yl]tetrahydrofuran-3-ol], the IC50 in the data set on MDA-MB-231 (setting [2]) was over 50 µM; in the data set on BT549 (setting [3]) it was 13.5 µM.

Turning to `OC[C@H]1O[C@@H](n2cnc3c(NC4CCCC4)nc(C(F)(F)F)nc32)[C@@H](F)[C@@H]1O` [Compound 7g, (2R,3R,4S,5R)-5-[6-(cyclopentylamino)-2-(trifluoromethyl)purin-9-yl]-4-fluoro-2-(hydroxymethyl)tetrahydrofuran-3-ol], the IC50 in the data set with BT549 (setting [3]) was 5.89 µM.

For the compound `Nc1nc(Cl)nc2c1ncn2[C@@H]1O[C@H](CO)[C@@H](O)[C@@H]1F` [Clofarabine, 2-chloro-2′-fluoro-2′-deoxy-9-β-D-arabinofuranosyladenine], the “tolerance of drug concentration (toxicity, survival)” value in data set [1] was “Toxicity was seen immediately following the 55 mg/kg dose”.

With `CC(C)Nc1nc(C(F)(F)F)nc2c1ncn2[C@@H]1O[C@H](CO)[C@@H](O)[C@@H]1F` [Compound 7a, (2R,3R,4S,5R)-4-fluoro-2-(hydroxymethyl)-5-(6-(isopropylamino)-2-(trifluoromethyl)purin-9-yl)tetrahydrofuran-3-ol], the half-maximal inhibitory concentration (IC50) in the data set on MDA-MB-231 (setting [2]) is 20.5 µM.

`OC[C@H]1O[C@@H](n2cnc3c(NC4CCC4)nc(C(F)(F)F)nc32)[C@@H](F)[C@@H]1O` [Compound 7e, (2R,3R,4S,5R)-5-[6-(cyclobutylamino)-2-(trifluoromethyl)purin-9-yl]-4-fluoro-2-(hydroxymethyl)tetrahydrofuran-3-ol]: the IC50 in the data set with BT549 (setting [3]) amounted to 13.8 µM.

For the compound `CC(C)C(=O)OC[C@H]1O[C@@H](n2cnc3c(N)nc(C(F)(F)F)nc32)[C@@H](F)[C@@H]1O` [Compound 15, [(2R,3R,4S,5R)-5-[6-amino-2-(trifluoromethyl)purin-9-yl]-4-fluoro-3-hydroxy-tetrahydrofuran-2-yl]methyl 2-methylpropanoate], the IC50 in the data set on MDA-MB-231 (setting [2]) is 7.12 µM; in the data set with BT549 (setting [3]), over 50 µM.

As for `CCCCCCCCCCCC(=O)Nc1nc(C(F)(F)F)nc2c1ncn2[C@@H]1O[C@H](CO)[C@@H](O)[C@@H]1F` [Compound 10, N-[9-[(2R,3S,4R,5R)-3-fluoro-4-hydroxy-5-(hydroxymethyl)tetrahydrofuran-2-yl]-2-(trifluoromethyl)purin-6-yl]dodecanamide], the IC50 in the data set with MDA-MB-231 (setting [2]) amounted to 3.19 µM.

Consider `Nc1nc(C(F)(F)F)nc2c1ncn2[C@@H]1O[C@H](CO)[C@@H](O)[C@@H]1F` [Compound 5, (2R,3R,4S,5R)-5-[6-amino-2-(trifluoromethyl)purin-9-yl]-4-fluoro-2-(hydroxymethyl)tetrahydrofuran-3-ol], for which the results for the IC50 with MDA-MB-231 (setting [2]) and in the data set with BT549 (setting [3]) were 4.16 µM and 0.018 µM, respectively. Besides, the “tumor volume / anti-tumor growth activity” value in the data set with MDA-MB-231 cells is given as “effectively reduces tumor volume; also recorded: anti-growth efficacy”.

Source of the values: patent US12103943B2, “Development of novel clofarabine analogs for cancer therapy” (Southern Research Institute, priority 2021, dated 2024).
